Assay results as given in patent US20240261258A1, “Presurgical Perineural Administration of Resiniferatoxin For Reduction of Post-Operative Pain” (Sorrento Therapeutics, Inc., priority 2021, published 2024).
Several values for one entry are separate records, joined by “and”; a condition that tells them apart may be missing. Identical values can stand only once.

Legend:
[1] = RTX plasma concentrations after nerve block or local application; assay type: in vivo, dog; design: Plasma concentration: unit not given here
Procedure: Fourteen adult female beagle dogs, weighing 11.9±0.6 kg and between 3-5 years of age, were enrolled in this study. Each animal was randomly assigned to one of four groups. Four dogs (group 1) received a femoral and sciatic nerve block with 12.5 μg RTX per nerve (25 μg RTX total) diluted with sterile saline for a total volume of 2 mL (half volume per block). Another four dogs (group 2) received a femoral and a sciatic nerve block with 3.12 μg RTX per nerve block (6.25 μg RTX total) diluted with sterile saline for a total volume of 2 mL (half volume per block). Group 3 (4 animals) received a femoral and sciatic nerve block with 5 mg bupivacaine total (standard of care) plus a total of 50 μg RTX (total volume of 4 mL, concentration 12.5 μg/mL) applied locally to the cut on the tibia for 10 min. Group 4 (2 animals) was the control group and received a femoral and a sciatic nerve block with 5 mg bupivacaine total (standard of care).
Blood (4-5 mL) was collected at the beginning of the study for complete blood count and chemistry parameters. Another 2 mL sample was collected at time 0 (baseline), 5, 15, 45, 60, and 90 minutes, and at 2, 3, 4, 6, and 8 hours after RTX administration for pharmacokinetic analysis to determine how plasma levels of RTX change over time. Dog plasma samples were extracted using an organic solvent mixture, dried under nitrogen, reconstituted and analyzed by reversed-phase HPLC. The mobile phase was nebulized using heated nitrogen in a Z-spray source/interface set to electrospray positive ionization mode. The ionized compounds are detected using tandem mass spectrometry or MS/MS.
RTX Plasma concentrations (pg/mL) were measured in the dogs following administration of RTX solution as femoral and sciatic nerve blocks.

[2] = system: stifle of dogs after TPLO; assay: Radiographic, CT and MRI evaluation of bone healing; assay type: in vivo, dog; details: for Pattern of healing N (no findings), No. of Dogs / Pattern of healing S (soft tissue swelling with normal bone healing), No. of Dogs / Pattern of healing S&B (soft tissue swelling and delayed bone healing), No. of Dogs: 4 dogs
Procedure: Radiographs of the stifle were performed before surgery, the day after surgery, at day 28, and at day 56. Dogs were sedated to allow for correct positioning of the leg and to minimize stress from handling. Standardized TPLO views (lateral and caudal-cranial) were acquired. An MRI and CT were also performed on the operated leg after the animals were euthanized and the surgical plate was removed (day 56).
Orthogonal plane radiographs of the stifle were obtained for all dogs at all timepoints. After euthanasia, CT was obtained in 11 of the 14 dogs and MRI in all dogs. Metal artifact due to the presence of a broken screw prevented the evaluation of one MR study. Soft tissues could not be reliably assessed due to disruption secondary to removal of the plate. There was no evidence of implant failure or suboptimal osteotomy repair in any dog. Upon review of all imaging modalities, three patterns of healing emerged (Table 9a).
The delay of bone healing refers to a slower bone healing process as compared to the findings in the rest of the dogs in this study. This is not to be considered as an absolute delayed bone healing since the dogs were only enrolled in the study for 56 days

With `C=C(C)[C@]12C[C@@H](C)[C@@]34O[C@](Cc5ccccc5)(O[C@@H]1[C@@H]3C=C(COC(=O)Cc1ccc(O)c(OC)c1)C[C@]1(O)C(=O)C(C)=C[C@@H]41)O2` [RTX, resiniferatoxin] the “Plasma concentrations for RTX” value ([1]; Group 1 High Dose, 25 μg total F/Sc nerve block, 45 min, dogs 0271, 2968, 3837, 5635 in c3-c6) was “BQL (BQL—Below the Quantifiable Limit < 50.0 pg/mL)”, the “Plasma concentrations for RTX” value ([1]; Group 1 High Dose, 25 μg total F/Sc nerve block, 60 min, dogs 0271, 2968, 3837, 5635 in c3-c6) was “BQL (BQL—Below the Quantifiable Limit < 50.0 pg/mL)” and the “Plasma concentrations for RTX” value ([1]; Group 1 High Dose, 25 μg total F/Sc nerve block, 6 h, dogs 0271, 2968, 3837, 5635 in c3-c6) was 94.1 pg/mL and 182 pg/mL and 130 pg/mL. The “Plasma concentrations for RTX” value ([1]; Group 1 High Dose, 25 μg total F/Sc nerve block, 8 h, dogs 0271, 2968, 3837, 5635 in c3-c6) was 62.3 pg/mL and 117 pg/mL and 99.1 pg/mL, the “Plasma concentrations for RTX” value ([1]; Group 1 High Dose, 25 μg total F/Sc nerve block, Predose, dogs 0271, 2968, 3837, 5635 in c3-c6) was “BQL (BQL—Below the Quantifiable Limit < 50.0 pg/mL)” and the “Plasma concentrations for RTX” value ([1]; Group 2 Low Dose, 6.25 μg total F/Sc nerve block, 0 min, dogs 2561, 3743, 4681, 5686 in c3-c6) was “BQL (BQL—Below the Quantifiable Limit < 50.0 pg/mL)”. For the same compound, the “Plasma concentrations for RTX” value ([1]; Group 2 Low Dose, 6.25 μg total F/Sc nerve block, 5 min, dogs 2561, 3743, 4681, 5686 in c3-c6) was “BQL (BQL—Below the Quantifiable Limit < 50.0 pg/mL)”, the “Plasma concentrations for RTX” value ([1]; Group 2 Low Dose, 6.25 μg total F/Sc nerve block, 15 min, dogs 2561, 3743, 4681, 5686 in c3-c6) was “BQL (BQL—Below the Quantifiable Limit < 50.0 pg/mL)” and the “Plasma concentrations for RTX” value ([1]; Group 2 Low Dose, 6.25 μg total F/Sc nerve block, 45 min, dogs 2561, 3743, 4681, 5686 in c3-c6) was “BQL (BQL—Below the Quantifiable Limit < 50.0 pg/mL)”. For the same compound, the “Plasma concentrations for RTX” value ([1]; Group 2 Low Dose, 6.25 μg total F/Sc nerve block, 60 min, dogs 2561, 3743, 4681, 5686 in c3-c6) was “BQL (BQL—Below the Quantifiable Limit < 50.0 pg/mL)”, the “Plasma concentrations for RTX” value ([1]; Group 2 Low Dose, 6.25 μg total F/Sc nerve block, 6 h, dogs 2561, 3743, 4681, 5686 in c3-c6) was “BQL (BQL—Below the Quantifiable Limit < 50.0 pg/mL)” and the “Plasma concentrations for RTX” value ([1]; Group 2 Low Dose, 6.25 μg total F/Sc nerve block, 8 h, dogs 2561, 3743, 4681, 5686 in c3-c6) was “BQL (BQL—Below the Quantifiable Limit < 50.0 pg/mL)”. For the same compound, the “Plasma concentrations for RTX” value ([1]; Group 2 Low Dose, 6.25 μg total F/Sc nerve block, Predose, dogs 2561, 3743, 4681, 5686 in c3-c6) was “BQL (BQL—Below the Quantifiable Limit < 50.0 pg/mL)”, the “Plasma concentrations for RTX” value ([1]; Group 3 Local, 50 μg on bone incision, 0 min, dogs 2272, 3007, 3722, 9501 in c3-c6) was “BQL (BQL—Below the Quantifiable Limit < 50.0 pg/mL)” and the “Plasma concentrations for RTX” value ([1]; Group 3 Local, 50 μg on bone incision, 5 min, dogs 2272, 3007, 3722, 9501 in c3-c6) was “BQL (BQL—Below the Quantifiable Limit < 50.0 pg/mL)”. The “Plasma concentrations for RTX” value ([1]; Group 3 Local, 50 μg on bone incision, 15 min, dogs 2272, 3007, 3722, 9501 in c3-c6) was “BQL (BQL—Below the Quantifiable Limit < 50.0 pg/mL)”, the “Plasma concentrations for RTX” value ([1]; Group 3 Local, 50 μg on bone incision, 45 min, dogs 2272, 3007, 3722, 9501 in c3-c6) was “BQL (BQL—Below the Quantifiable Limit < 50.0 pg/mL)” and the “Plasma concentrations for RTX” value ([1]; Group 3 Local, 50 μg on bone incision, 60 min, dogs 2272, 3007, 3722, 9501 in c3-c6) was “BQL (BQL—Below the Quantifiable Limit < 50.0 pg/mL)”. For the same compound, the “Plasma concentrations for RTX” value ([1]; Group 3 Local, 50 μg on bone incision, 90 min, dogs 2272, 3007, 3722, 9501 in c3-c6) was “BQL (BQL—Below the Quantifiable Limit < 50.0 pg/mL)”, the “Plasma concentrations for RTX” value ([1]; Group 3 Local, 50 μg on bone incision, 2 h, dogs 2272, 3007, 3722, 9501 in c3-c6) was “BQL (BQL—Below the Quantifiable Limit < 50.0 pg/mL)” and the “Plasma concentrations for RTX” value ([1]; Group 3 Local, 50 μg on bone incision, 3 h, dogs 2272, 3007, 3722, 9501 in c3-c6) was “BQL (BQL—Below the Quantifiable Limit < 50.0 pg/mL)”. For the same compound, the “Plasma concentrations for RTX” value ([1]; Group 3 Local, 50 μg on bone incision, 4 h, dogs 2272, 3007, 3722, 9501 in c3-c6) was “BQL (BQL—Below the Quantifiable Limit < 50.0 pg/mL)”, the “Plasma concentrations for RTX” value ([1]; Group 3 Local, 50 μg on bone incision, 6 h, dogs 2272, 3007, 3722, 9501 in c3-c6) was “BQL (BQL—Below the Quantifiable Limit < 50.0 pg/mL)” and the “Plasma concentrations for RTX” value ([1]; Group 3 Local, 50 μg on bone incision, 8 h, dogs 2272, 3007, 3722, 9501 in c3-c6) was “BQL (BQL—Below the Quantifiable Limit < 50.0 pg/mL)”. The “Plasma concentrations for RTX” value ([1]; Group 3 Local, 50 μg on bone incision, Predose, dogs 2272, 3007, 3722, 9501 in c3-c6) was “BQL (BQL—Below the Quantifiable Limit < 50.0 pg/mL)”, the Plasma concentration ([1]; Subject 2968 (group 1), 2 hour timepoint) was 1790 and the RTX plasma levels ([1]; all dogs that received the local application (50 μg)) was “below the quantifiable limit at all timepoints”. It also gave a concentration at 90 min ([1]; female, beagle, dog, plasma, 6.25 μg, Group 2 Low Dose, 6.25 μg total F/Sc nerve block, 90 min, dogs 2561, 3743, 4681, 5686 in c3-c6) of 0.085 ng/mL, a concentration at 2 h ([1]; female, beagle, dog, plasma, 6.25 μg, Group 2 Low Dose, 6.25 μg total F/Sc nerve block, 2 h, dogs 2561, 3743, 4681, 5686 in c3-c6) of 0.0607 ng/mL and a concentration at 3 h ([1]; female, beagle, dog, plasma, 6.25 μg, Group 2 Low Dose, 6.25 μg total F/Sc nerve block, 3 h, dogs 2561, 3743, 4681, 5686 in c3-c6) of 0.0847 ng/mL. The concentration at 4 h ([1]; female, beagle, dog, plasma, 6.25 μg, Group 2 Low Dose, 6.25 μg total F/Sc nerve block, 4 h, dogs 2561, 3743, 4681, 5686 in c3-c6) was 0.0506 ng/mL, the concentration at 0 min ([1]; female, beagle, dog, plasma, 25 μg, Group 1 High Dose, 25 μg total F/Sc nerve block, 0 min, dogs 0271, 2968, 3837, 5635 in c3-c6) was 0.397 ng/mL and the concentration at 5 min ([1]; female, beagle, dog, plasma, 25 μg, Group 1 High Dose, 25 μg total F/Sc nerve block, 5 min, dogs 0271, 2968, 3837, 5635 in c3-c6) was 0.1 ng/mL. For the same compound, the concentration at 15 min ([1]; female, beagle, dog, plasma, 25 μg, Group 1 High Dose, 25 μg total F/Sc nerve block, 15 min, dogs 0271, 2968, 3837, 5635 in c3-c6) was 0.0964 ng/mL, the concentration at 90 min ([1]; female, beagle, dog, plasma, 25 μg, Group 1 High Dose, 25 μg total F/Sc nerve block, 90 min, dogs 0271, 2968, 3837, 5635 in c3-c6) was 0.0551 ng/mL and the concentration at 6 h ([1]; female, beagle, dog, plasma, 25 μg, Group 1 High Dose, 25 μg total F/Sc nerve block, 6 h, dogs 0271, 2968, 3837, 5635 in c3-c6) was 0.105 ng/mL. The concentration at 8 h ([1]; female, beagle, dog, plasma, 25 μg, Group 1 High Dose, 25 μg total F/Sc nerve block, 8 h, dogs 0271, 2968, 3837, 5635 in c3-c6) was 0.0656 ng/mL, the “RTX plasma levels at last time point” value ([1]; high dose group (25 μg total nerve block)) was “still detectable at 8 hours” and the “Time after which RTX plasma levels fell to below detectable” value ([1]; low dose group (6.25 μg total nerve block)) was 3 to 4 h. For the same compound, the “Time after administration until plasma levels of RTX reached detectable levels” value ([1]; nerve block, regardless of dose, except one dog in group 1 (subject 5635)) was “at least 90 minutes”, the “Pattern of healing N (no findings), No. of Dogs” value ([2]; Group 1 (high dose)) was 1 and the “Pattern of healing S (soft tissue swelling with normal bone healing), No. of Dogs” value ([2]; Group 1 (high dose)) was 2. For the same compound, the “Pattern of healing S&B (soft tissue swelling and delayed bone healing), No. of Dogs” value (“Pattern of healing S&B … No. of Dogs” below) ([2]; Group 1 (high dose)) was 1, the “Pattern of healing N (no findings), No. of Dogs” value ([2]; Group 2 (low dose)) was 2 and the “Pattern of healing S (soft tissue swelling with normal bone healing), No. of Dogs” value ([2]; Group 2 (low dose)) was 1. For the same compound, the “Pattern of healing S&B … No. of Dogs” value ([2]; Group 2 (low dose)) was 1, the “Pattern of healing N (no findings), No. of Dogs” value ([2]; Group 3 (local)) was 1 and the “Pattern of healing S (soft tissue swelling with normal bone healing), No. of Dogs” value ([2]; Group 3 (local)) was 1. For the same compound, the “Pattern of healing S&B … No. of Dogs” value ([2]; Group 3 (local)) was 2 and the “Effect on the bone healing process” value ([2]; distribution of healing patterns among the treatment groups) was “did not adversely affect the bone healing process”.
